Experimental data from patent US20040038828A1 (priority 2002, published 2004).
“Also recorded” adds a separate entry of the source. Read-outs that look alike come from different tables or passages of the source.

What was measured:
[1] = test system: smooth pigweed (Amaranthus hybridus) seeds; experiment: Herbicide screen, smooth pigweed petri plate bioassay; format: in vivo; conditions: all ppm levels tested (up to 2000 ppm), 30 days
Procedure: (§1) Herbicide Screen: Each compound was tested on seeds of smooth pigweed (Amaranthus hybridus) and barnyard grass (Echinocloa crus-galli), and on tubers of purple nutsedge (Cyperus rotundus), by exposing seeds or tubers to a specific concentration of the test compound. Seeds were surface sterilized (by rinsing in 2% bleach solution for 90 seconds followed by two rinses with sterile water) and 20 seeds placed on sterile filter paper (Whatman #5) in a 10-cm petri plate for each of six replicates for each weed species tested. Twenty ml of compound of concentrations ranging from 0 ppm (sterile water control) to 2000 ppm was added to the petri dishes. Plates were stored at 30° C. in an dark incubator. Seed germination was monitored at 24 hr intervals for 30 days. Petri plate bioassays were repeated twice for each compound. Field collected purple nutsedge tubers were placed in 500 g of field soil with soil moisture adjusted to 5%. Five nutsedge tubers were planted in each 10 cm pot at a depth of 2.5 cm. Six replicate pots of each concentration, ranging from 0 ppm (water control) to 2000 ppm, were treated using 100 ml as a soil drench. Pots were tarped with co-extruded black-on-white polyethylene mulch for 7 days. After the tarps were removed, the number of emerged nutsedge shoots was recorded on a weekly basis for 60 days.

[2] = test system: barnyard grass (Echinocloa crus-galli) seeds; experiment: Herbicide screen, barnyard grass petri plate bioassay; format: in vivo; conditions: all ppm levels tested (up to 2000 ppm), 30 days
Procedure: as §1

[3] = test system: Fusarium oxysporum f. sp. lycopersici (isolate FP-7) spores; experiment: Fusarium Tetrazolium Assay; format: cell-based; conditions: 24 hours of exposure; MTT absorbance at 570 nm
Procedure: Fusarium Tetrazolium Assay: The evaluation of fungicidal activity was performed using a modified colorimetric assay (Mace, M. E., et al., Pesticide Biochemistry and Physiology, 38: 57-59 (1990)). Each candidate compound was tested using a suspension of Fusarium oxysporum f. sp. lycopersici (isolate FP-7) spores harvested from 10-day old petri plates using a 0.05% stock solution of Triton X-100 (referred to as FT stock). Harvested spores were suspended in Czapek-Dox Broth (CDB), prepared according to label instructions, at a ratio of 1:5 CDB:FT. The suspension was then standardized using a Beckman spectrophotometer (430 nm) which had been calibrated using a CDB blank. Compounds were then added to aliquots of the suspension to achieve active ingredient concentrations ranging from 0 ppm (untreated control) to 2000 ppm. Suspensions were incubated for 24 hr at 28° C. A 10% stock solution of MTT ((3-4,5-dimethylthiazole-2-yl)-2,5-diphenyl-2-2H-tetrazolium bromide) was then added to each aliquot; MTT is a vital stain that is commonly used to show if an organism is alive based on a color change). The suspensions were allowed to incubate for 4 hr, and then pelleted, drained, rinsed, and treated with 95% ethanol. The color change, which correlates with spore viability, was assessed using a Beckman spectrophotometer (570 nm) calibrated with 95% ethanol. Benlate® (benomyl) was used as an industry standard control. Each treatment was replicated six times and the assay for each compound was repeated. Regression analysis was performed using Sigma Plot 2000.

[4] = test system: root-knot nematode eggs (Meliodogyne incognita); experiment: Nematicide screen, root-knot nematode galling assay on tomato; format: in vivo; conditions: 0 to 2000 ppm soil drench, tarped 14 days, seedlings assessed 30 days after transplant
Procedure: Nematicide Screen: Efficacy as a nematicide was evaluated by infesting field soil with a standardized quantity of root-knot nematode eggs (Meliodogyne incognita). Soil was partitioned into 10 cm pots containing 500 g of soil each with soil moisture adjusted to 5%. Pots were treated with compounds ranging from 0 ppm to 2000 ppm of active ingredient in a 100-ml soil drench. Six replicate pots of each concentration were treated and tarped with co-extruded black-on-white polyethylene mulch for 14 days. After tarps were removed, a single tomato seedling was transplanted into each pot. Seedlings were removed 30 days later and assessed for root galling, root fresh weight, root dry weight, and number of eggs produced per gram of root tissue.

[5] = test system: purple nutsedge (Cyperus rotundus) tubers; experiment: Herbicide screen, nutsedge greenhouse assay (soil drench in pots); format: in vivo; conditions: for level eliminating the germination of nutsedge: 100 ml soil drench, 500 g soil, tarped 7 days, shoots counted for 60 days
Procedure: as §1

Commong roundsel = format: in vivo; conditions: Salinas plots; rate 400 lbs acres^−1
native weed population [6] = format: in vivo; conditions: Salinas plots, rate 400 lbs acres^−1
Corn spurry = format: in vivo; conditions: Watsonville plots; rate 400 lbs acres^−1
Southern brassbuttons = format: in vivo; conditions: Watsonville plots; rate 400 lbs acres^−1
Shepherd-spurse = format: in vivo; conditions: Salinas plots; rate 400 lbs acres^−1
Little mallow = format: in vivo; conditions: Watsonville plots; rate 400 lbs acres^−1
Redstem filaree = format: in vivo; conditions: Watsonville plots; rate 400 lbs acres^−1
Verticillium dahliea = format: in vivo; conditions: Watsonville; preplant fumigation, 400 pound per acre
Henbet = format: in vivo; conditions: Salinas plots; rate 400 lbs acres^−1
Annual sowthistle = format: in vivo; conditions: Watsonville plots; rate 400 lbs acres^−1
native weed population [7] = format: in vivo
Common chickweed = format: in vivo; conditions: Watsonville plots; rate 400 lbs acres^−1

## OCCI [2-iodoethanol]
[1]
  germination of pigweed seeds: eliminated at all ppm levels tested
[2]
  germination of barnyard grass seeds: eliminated at all ppm levels tested
[3]
  concentration effective at reducing cell viability to levels achieved with Benlate (100 ppm): 100-500 ppm
  fungicidal activity (in words): comparable to the Benlate® control; also recorded: excellent fungicidal activity
[4]
  root gall severity on tomato: galling decreases with increased concentration
[5]
  level eliminating the germination of nutsedge: ≥ 500 ppm

## OCCBr [2-bromoethanol]
Commong roundsel
  weed biomass, Commong roundsel: 0.3 gram/m^2
Native weed population [6]
  weed biomass, Other weeds: 21.5 gram/m^2
Native weed population [6]; same letter = not significantly different at P < 0.05
  Total weed biomass: 46.7a gram/m^2
Corn spurry
  weed biomass, Corn spurry: 1.1 gram/m^2
Southern brassbuttons
  weed biomass, Southern brassbuttons: 1.0 gram/m^2
[1]
  germination of pigweed seeds: eliminated at all ppm levels tested
[2]
  germination of barnyard grass seeds: eliminated at all ppm levels tested
Shepherd-spurse
  weed biomass, Shepherd-spurse: 11.3 gram/m^2
[3]
  fungicidal activity (in words): excellent fungicidal activity
Little mallow
  weed biomass, Little mallow: 0.2 gram/m^2
Redstem filaree
  weed biomass, Redstem filaree: 0.3 gram/m^2
Verticillium dahliea
  reduction of the population of Verticillium dahliea: 74%
[4]
  root gall severity on tomato: Only the untreated control showed galling of any kind
[5]
  level eliminating the germination of nutsedge: ≥ 1000 ppm
[5]; at the 500 ppm level
  nutsedge germination: approximately 50%
[5]; equivalent of the 1000 ppm drench level
  soil applied equivalent of the rate eliminating nutsedge germination: 200 ppm
Henbet
  weed biomass, Henbet: 9.4 gram/m^2
Annual sowthistle
  weed biomass, Annual sowthistle: 0.0 gram/m^2
Native weed population [7]; Watsonville
  control of native weeds (in words): control of most weeds
Native weed population [7]; Watsonville plots, rate 400 lbs acres^−1
  weed biomass, Other weeds: 3.6 gram/m^2
Native weed population [7]; Watsonville plots, rate 400 lbs acres^−1, same letter = not significantly different at P <0.05
  Total weed biomass: 13.7a gram/m^2
Common chickweed
  weed biomass, Common chickweed: 1.6 gram/m^2
